Drawing on patent US5700817A, “Cyclic lipid derivatives as potent PAF antagonists” (Pohang Iron & Steel Co., Ltd., priority 1993, dated 1997), this text covers Ki, inhibition and IC50 for eight compounds.

For assay [1], the target named is T1, PAF receptor (Oryctolagus cuniculus, UniProt G1TEI7).
T1 construct: Platelet membranes were prepared by centrifugation and washing; tissue Pel-Freez (Rogers, AR), supplier of the citrated whole rabbit blood; host or cells: rabbit platelet membranes
Kind of assay: PAF Receptor Binding Assay ([3H]C18-PAF, rabbit platelet membranes). The method, then:
PAF Receptor Binding Assay Citrated whole rabbit blood was obtained from Pel-Freez(Rogers, AR). Rabbit platelets were prepared by centrifugation and washing. The platelets were lysed by freeze-thawing and sonification; Platelet membranes were prepared by centrifugation and washing. Final membrane preparation were stored frozen in 10 mM Tris/5 mM MgCl2 /2 mM EDTA (TME buffer, pH 7.0) with 0.25M sucrose added for membrane stabilization. […] The final volume of the assay was 1001 μl. The assay was conducted in Millititer-GV™(Millipore Corp.) filtration plates; incubation time was for 60 minutes at room temperature (22°-23° C.). […] The filters were dried and removed. The bound radioactivity was quantiated with a Berthold TLC-Linear Analyzer model LB2842. […] Experiments were repeated at least once. […] Ki values of inhibitory binding constants were calculated according to the methods of the literature[Cheng et al., Biochem.

Assay [2] has as its system PAF-induced [^14 C]serotonin release, rabbit platelets. Kind of assay: Inhibitory action on PAF-induced [14C]-serotonin release from rabbit platelets. The conditions noted are these: Oryctolagus cuniculus, Platelet, PAF 1×10^-9 M; for inhibition at 0.005 µM: test compound 5 × 10^-9 M; for inhibition at 0.05 µM: test compound 5 × 10^-8 M. Type of assay: cell-based, New Zealand white male rabbits. The method, then: The following pharmacological test examples explain the effects of the present invention in a more concrete manner.
Inhibitory action on PAF-induced [^14 ]-serotonin release
Blood was collected from the hearts of conscious New Zealand white male rabbits weighing 2 to 3 kg. The blood was immediately subjected to a centrifuge at 1400 rpm for 10 minutes to obtain platelet rich plasma(PRP).PRP was incubated with a trace amount of [^14 C]-serotonin for 20 minutes at 22° C. Prelabelled platelets were prepared by centrifugation at 3500 rpm for 10 minutes. The test compound was added to 80 μl of [^14 C]serotonin-labeled platelets in plastic test tubes, and the mixture was incubated for 2 minutes. PAF (1×10 ^-9 M) was then added to the reaction mixture and incubated for additional 2 minutes at which time 10 μl of cold formaldehyde was added to stop the reactions. The tubes were immediately cooled to 4° C. and centrifuged at 12000 rpm for 2 minutes. The supernatants (80 μl) were assayed for percentage of [^14 C]serotonin release by the conventional methods of measuring ^14 C counts.

Assay [3] relates to PAF-induced platelet aggregation, rabbit platelets. Kind of assay: Inhibitory action on PAF-induced platelet aggregation (platelet-rich plasma). The following applies: Oryctolagus cuniculus, PAF 5×10^-9 M, 37° C., turbidimetry, rabbit PRP. Type of assay: cell-based, New Zealand male rabbits.
Method: Blood was collected from the hearts of conscious New Zealand male rabbits weighing 2 to 3 kg using citric acid as an anticoagulant (one volume part of 3% citric acid relative to 9 volume parts of the whole blood). A platelet-rich plasma(PRP) was prepared by centrifugation at 1000 rpm for 10 minutes. The remaining blood after collecting the PRP was subjected to a centrifuge at 3000 rpm for 10 minutes to obtain platelet poor plasma(PPP). PRP was diluted with PPP to adjust the number of platelets to about 3×10^5 /μl. Solution of test compound (30 μl) was added to the PRP(270 μl), and after incubation for 2 minutes at 37° C., 30 μl aliquot of PAF(5×10^-9 M) was added. Platelet aggregation was then examined by means of turbidimetry [Born, Nature, 194, 927(1962)] with dual channel aggregometer (Chrono-Log. Corp., Havertown, Pa.). As the control, physiological saline without test sample was used. The platelet aggregation inhibiting activities of the test sample are expressed as IC50, that is the concentration of the compound at which 50% of the aggregation is inhibited.

T1 sequence (G1TEI7 1-342): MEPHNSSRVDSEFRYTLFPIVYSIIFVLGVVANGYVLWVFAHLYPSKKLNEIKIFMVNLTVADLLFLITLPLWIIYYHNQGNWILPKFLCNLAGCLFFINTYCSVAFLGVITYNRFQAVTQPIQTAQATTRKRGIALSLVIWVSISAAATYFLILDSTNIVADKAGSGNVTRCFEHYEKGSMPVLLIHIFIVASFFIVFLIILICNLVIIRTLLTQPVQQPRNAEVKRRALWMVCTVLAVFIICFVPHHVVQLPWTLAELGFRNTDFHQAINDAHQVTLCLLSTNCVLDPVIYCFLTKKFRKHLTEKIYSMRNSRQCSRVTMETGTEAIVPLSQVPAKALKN

As for `CCCCCCCCCCCCCCCCCCNC(=O)OC[C@H]1C[C@H](COC(=O)N(Cc2cccc[n+]2CC)C(=O)c2ccccc2OC)S1` (relative stereo) [Example 30, trans-2-[[N-(2-Methoxy)benzoyl-N-[[[4-[[(octadecylcarbamoyl)oxy]ethyl]-2-thietanyl]methoxy]carbonyl]amino]-1-ethyl-pyridinium chloride], the inhibition constant Ki (in general, the dissociation constant of the complex between target and ligand, obtained from inhibition or displacement) in assay [1] was 34 nM. This lies in the double-digit nanomolar range.
As to `CCCCCCCCCCCCCCCCCCNC(=O)OCC1(COC(=O)N(Cc2cccc[n+]2CC)C(C)=O)COC1` [Example 6, 2-[[-Acetyl-N-[[[3-[[(octadecylcarbamoyl)oxy]methyl]-3-oxetanyl]methoxy]carbonyl]amino]methyl]-1-ethyl-pyridinium iodide], the inhibition – broadly, the change of the read-out against control, counted positive when it falls – at 0.005 µM in assay [2] stood at 75%.
In assay [2], `CCCCCCCCCCCCCCCCCCNC(=O)OC[C@@H]1C[C@H](COC(=O)N(Cc2cccc[n+]2CC)C(C)=O)O1` (relative stereo) [Example 3, cis-2-[[N-Acetyl-N-[[[4-[[(octadecylcarbamoyl)oxy]methyl]-2-oxetanyl]methoxy]carbonyl]amino]methyl]-1-ethyl-pyridinium iodide] had an inhibition at 0.05 µM of 85%.
On to `CCCCCCCCCCCCCCCCOC[C@H]1C[C@@H](COC(=O)N(Cc2cccc[n+]2CC)C(C)=O)O1` (relative stereo) [Example 1, cis-2-[[N-Acetyl-N-[[[2-[(hexadecyloxy)methyl]-4-oxetanyl]methoxy]carbonyl]amino]methyl]-1-ethyl-pyridinium iodide], for which, in assay [2] (test compound 2 × 10^-7 M), the inhibition at 0.2 µM worked out at 90%.
On to `CCCCCCCCCCCCCCCCOC[C@H]1C[C@H](COC(=O)N(Cc2cccc[n+]2CC)C(=O)c2ccccc2OC)S1` (relative stereo) [Example 33, trans-2-[[N-(2-Methoxy)benzoyl-N-[[[4-[(hexadecyloxy)methyl]-2-thietanyl]methoxy]carbonyl]amino]methyl]-1-ethyl-pyridinium chloride], for which the IC50 – broadly, the midpoint of a concentration-inhibition curve – in assay [3] turned out to be 19 nM.
Compound `CCCCCCCCCCCCCCCCCCNC(=O)OCC1(COC(=O)CCCCC[n+]2ccsc2)COC1` [Example 13, 3-[5-[[[3-[[(Octadecylcarbamoyl)oxy]methyl]-3-oxetanyl]methoxy]carbonyl]pentyl]thiazolium bromide] gave an inhibition at 0.05 µM in assay [2] of 85%.
In assay [1], `CCCCCCCCCCCCCCCCCCNC(=O)OC[C@H]1C[C@H](COC(=O)N(Cc2cccc[n+]2CC)C(C)=O)N1C(=O)c1ccccc1` (relative stereo) [Example 44, 2-[[N-Acetyl-N-[[[4-[[(octadecylcarbamoyl)oxy]methyl]-1-benzoylazetidine-2-yl]methoxy]carbonyl]amino]methyl]-1-ethyl-pyridinium chloride] had an inhibition constant Ki of 104 nM.
In assay [2], `CCCCCCCCCCCCCCCCCCNC(=O)OC[C@H]1C[C@H](COC(=O)N(Cc2cccc[n+]2CC)C(C)=O)O1` (relative stereo) [Example 5, trans-2-[[N-Acetyl-N-[[[4-[[(octadecylcarbamoyl)oxy]methyl]-2-oxetanyl]methoxy]carbonyl]amino]methyl]-1-ethyl-pyridinium iodide] returned an inhibition at 0.05 µM of 95% and an inhibition at 0.005 µM of 70%.
